Here are results for 36 molecules from patent US20080119471A1, “Piperazine urea derivatives for the treatment of endometriosis” (priority 2004, published 2008).

Sequences and labels used below:
T1: human CCR1 (Homo sapiens, UniProt P32246)
T1 sequence (P32246 1-355): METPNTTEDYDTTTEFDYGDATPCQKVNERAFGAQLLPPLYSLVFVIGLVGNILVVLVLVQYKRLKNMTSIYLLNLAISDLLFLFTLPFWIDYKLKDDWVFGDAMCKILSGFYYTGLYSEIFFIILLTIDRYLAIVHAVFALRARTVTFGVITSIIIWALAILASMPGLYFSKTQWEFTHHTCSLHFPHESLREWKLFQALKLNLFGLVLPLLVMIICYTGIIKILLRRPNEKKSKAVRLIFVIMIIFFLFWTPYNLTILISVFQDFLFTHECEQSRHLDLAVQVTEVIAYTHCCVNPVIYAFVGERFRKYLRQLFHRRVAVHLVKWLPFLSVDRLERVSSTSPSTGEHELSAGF

B1: MIP-1β: human chemokine that binds human CCR1 with low affinity (protein, UniProt P13236 24-92, looked up)
C-C motif chemokine 4: APMGSDPPTACCFSYTARKLPRNFVVDYYETSSLCSQPAVVFQTKRSKQVCADPSESWVQEYVYDLELN

One test concerns the target T1, human CCR1.
Assay: not given
The conditions noted are these: result in words; cited from earlier work.
Regarding “MCP-1: human chemokine that binds human CCR1 with low affinity; a ligand for CCR2”, the “signalling through human CCR1” value is “neither ligand is able to signal”.
Consider B1, for which the “signalling through human CCR1” value is recorded as “neither ligand is able to signal”.

A further test addresses T1, human CCR1. As to the kind of experiment: In vitro assay for CCR1 receptor antagonists: competition with 125I-MIP-1α or 125I-RANTES on 293MR cells. Set-up: expressed in transfected cells. It counts as binding. The conditions noted are these: Table 2. Here is the method: Human CCR1 cDNA was provided through collaboration with Dr. Stephen Peiper of the University of Louisville, Ky. […] The plasmid also contained hygromycin and puromycin resistance genes. Calcium phosphate transfection standard protocols were used to insert the plasmid into the HEK293 cells. Cells were selected for stable expression of CCR1 using hygromycin and puromycin selection.
• 130 mM NaCl, 5 mM KCl, 1 mM MnCl2, 50 mM Tris, 30 μg/ml bacitracin, 0.1% BSA, pH 7.4.
The stock solution of the compounds was 1 mM in 100% DMSO. […] A serial 1:3 dilution from the highest concentration was made with assay buffer. Six concentrations of each compound were usually being screened to generate a dose curve from which the Ki value was determined.
Assays were performed in 96-well v-bottom microtiter plates in a total volume of 100 μl. […] The cells were washed once in PBS and resuspended in the assay buffer to about 1.1×10^5 cells/mL.
The radioactivities in each well were determined by scintillation counting following addition of 50 μl of scintillation fluid.
The nonspecific binding was defined by the binding in the presence of 100 nM of unlabeled MIP-1α or RANTES.
The dose curves of each compound with 6 concentration points were generated and IC50 values were determined by fitting the data to the log-logit equation (linear) with an EXCEL spread-sheet.
Take `C[C@@H]1CN(C(=O)COc2ccc(Cl)cc2CNC(N)=O)[C@@H](C)CN1Cc1ccc(F)cc1` [compound 14]: the Ki was 2 nM.
Still for that read-out and setting: under `CC1CN(C(=O)COc2ccc(Cl)cc2N)C(C)CN1Cc1ccc(F)cc1` (stereo not drawn) [compound 15] stands 9 nM.
Same read-out and setting: under `CC1CN(Cc2ccc(F)cc2)CCN1C(=O)COc1ccc(Cl)c([N+](=O)[O-])c1` (stereo not drawn) [compound 16] stands 21 nM; under `C[C@@H]1CN(C(=O)COc2ccc(Cl)cc2NCc2ccccc2)[C@@H](C)CN1Cc1ccc(F)cc1` [compound 17], 42 nM; under `CCCC(C)Nc1cc(Cl)ccc1OCC(=O)N1C[C@@H](C)N(Cc2ccc(F)cc2)C[C@@H]1C` (stereo partly drawn) [compound 18], 87 nM.
As to `CC(=O)Nc1cc(Cl)ccc1OCC(=O)N1CCN(Cc2ccc(F)cc2)CC1C` (stereo not drawn) [compound 19], the Ki amounted to 5 nM.
The same measure, in the same setting: under `CCCC(=O)Nc1cc(Cl)ccc1OCC(=O)N1C[C@@H](C)N(Cc2ccc(F)cc2)C[C@@H]1C` [compound 20] stands 7 nM.
The same measure, in the same setting: under `CC(C)C(=O)Nc1cc(Cl)ccc1OCC(=O)N1C[C@@H](C)N(Cc2ccc(F)cc2)C[C@@H]1C` [compound 21] stands 13 nM; under `COCC(=O)Nc1cc(Cl)ccc1OCC(=O)N1C[C@@H](C)N(Cc2ccc(F)cc2)C[C@@H]1C` [compound 22], 3 nM.
With `COC(=O)CCC(=O)Nc1cc(Cl)ccc1OCC(=O)N1C[C@@H](C)N(Cc2ccc(F)cc2)C[C@@H]1C` [compound 23], the Ki is 5 nM.
Still for that read-out and setting: in the case of `C[C@@H]1CN(C(=O)COc2ccc(Cl)cc2NS(C)(=O)=O)[C@@H](C)CN1Cc1ccc(F)cc1` [compound 24] it was 6 nM; in that of `C[C@@H]1CN(C(=O)COc2ccc(Cl)cc2NC(=O)CN)[C@@H](C)CN1Cc1ccc(F)cc1` [compound 26], 1 nM; in that of `C[C@@H]1CN(C(=O)COc2ccc(Cl)cc2NC(=O)CNC(N)=O)[C@@H](C)CN1Cc1ccc(F)cc1` [compound 27], 2 nM.
The same measure, in the same setting: under `CCN(C)C(C)c1cc(Cl)ccc1OCC(=O)N1C[C@@H](C)N(Cc2ccc(F)cc2)C[C@@H]1C` (stereo partly drawn) [compound 28] stands 18 nM; under `CC(c1cc(Cl)ccc1OCC(=O)N1C[C@@H](C)N(Cc2ccc(F)cc2)C[C@@H]1C)n1ccnc1` (stereo partly drawn) [compound 29], 6 nM.
The same measure, in the same setting: in the case of `C[C@@H]1CN(C(=O)COc2ccc(Cl)cc2C(=O)NCCN)[C@@H](C)CN1Cc1ccc(F)cc1` [compound 30] it was 9 nM; in that of `CC(=O)Nc1ccccc1OCC(=O)N1CCN(Cc2ccc(F)cc2)CC1C` (stereo not drawn) [compound 31], 106 nM; in that of `C[C@@H]1CN(C(=O)COc2cccc(C#N)c2)[C@@H](C)CN1Cc1ccc(F)cc1` [compound 32], 68 nM.
As to `Cc1cc(O)cc(OCC(=O)N2C[C@H](C)N(Cc3ccc(F)cc3)C[C@H]2C)c1` [compound 33], the affinity, expressed as Ki, was 5 nM.
The same measure, in the same setting: in the case of `COC(=O)c1ccc(OC)cc1OCC(=O)N1C[C@@H](C)N(Cc2ccc(F)cc2)C[C@@H]1C` [compound 34] it was 31 nM; in that of `CC(O)C1CN(Cc2ccc(F)cc2)CCN1C(=O)COc1ccc(Cl)cc1` (stereo not drawn) [compound 35], 13 nM; in that of `C=CC(O)CC1CN(Cc2ccc(F)cc2)CCN1C(=O)COc1ccc(Cl)cc1` (stereo not drawn) [compound 36], 172 nM.
On the same count and under the same terms, under `O=C(COc1ccc(Cl)cc1)N1CCN(Cc2ccc(F)cc2)C(C(F)(F)F)C1` (stereo not drawn) [compound 37] stands 148 nM; under `C[C@@H]1CN(C(=O)COc2ccc3ccc(=O)oc3c2)[C@@H](C)CN1Cc1ccc(F)cc1` [compound 39], 18 nM.
Same read-out and setting: in the case of `C[C@@H]1CN(C(=O)COc2ccc(Cl)cc2N2C(=O)c3ccccc3C2=O)[C@@H](C)CN1Cc1ccc(F)cc1` [compound 40] it was 64 nM; in that of `C[C@@H]1CN(C(=O)CC(CN)c2ccc(Cl)cc2)[C@@H](C)CN1Cc1ccc(F)cc1` (stereo partly drawn) [compound 41], 56 nM.
Take `CC(=O)NCC(CC(=O)N1C[C@@H](C)N(Cc2ccc(F)cc2)C[C@@H]1C)c1ccc(Cl)cc1` (stereo partly drawn) [compound 42]: the Ki worked out at 26 nM.
The same measure, in the same setting: under `C[C@@H]1CN(C(=O)CC(NS(C)(=O)=O)c2ccc(Cl)cc2)[C@@H](C)CN1Cc1ccc(F)cc1` (stereo partly drawn) [compound 43] stands 32 nM; under `CCC1CN(Cc2ccc(F)cc2)CCN1C(=O)COc1ccc(Cl)cc1` (stereo not drawn) [compound 44], 15 nM.
The same measure, in the same setting: under `CCC[C@@H]1CN(Cc2ccc(F)cc2)CCN1C(=O)COc1ccc(Cl)cc1` [compound 45] stands 75 nM.
On the same count and under the same terms, under `O=C(COc1ccc(Cl)cc1)N1CCN(Cc2ccc(F)cc2)CC12CC2` [compound 46] stands 74 nM; under `C[C@@H]1CN(C(=O)COc2ccc(Cl)cc2C(N)=O)[C@@H](C)CN1Cc1ccc(F)cc1` [compound 47], 3 nM; under `C[C@@H]1CN(Cc2ccc(F)cc2)[C@@H](CC#N)CN1C(=O)COc1ccc(Cl)cc1` [compound 48], 38 nM.
`C[C@@H]1CN(Cc2ccc(F)cc2)[C@@H](CN2CCOCC2)CN1C(=O)COc1ccc(Cl)cc1` [compound 49] yielded a Ki of 109 nM.

By Ki is commonly meant a measure of affinity in units of concentration, obtained from inhibition or displacement. A low value points to a stronger hold on the target.
